Data set [1] deals with T1, interaction between ALK and EGFR (Homo sapiens, UniProt P00533+Q9UM73).
T1 construct: endogenous in cells; host or cells: THP1 cells
In words: IP analysis of the interaction between ALK and EGFR, THP1. It counts as cell-based. Particulars: 3′3′-cGAMP or c-di-AMP 10 μg/ml, 16 hours, 10 μM. The protocol: For immunoprecipitation, cells were lysed at 4° C. in ice-cold modified radioimmunoprecipitation lysis buffer (#9806, Cell Signaling Technology) and cell lysates were cleared by centrifugation (12,000 g, 10 min). Concentrations of proteins in the supernatant were determined by bicinchoninic acid assay. Prior to immunoprecipitation, samples containing equal amounts of proteins were pre-cleared with Protein A/G agarose/sepharose beads (#20423, Thermo Fisher Scientific Inc.) (4° C., 3 h) and subsequently incubated with various irrelevant IgG or anti-ALK (#ab190934, Abcam) or anti-EGFR antibodies (#2232S, Cell Signaling Technology) in the presence of Protein A/G agarose/sepharose beads overnight at 4° C. with gentle shaking. Following incubation, agarose/sepharose beads were washed extensively with PBS and proteins were eluted by boiling in 2× sodium dodecyl sulfate (SDS) sample buffer before SDS-PAGE electrophoresis.

For data set [2], the system named is IFNβ mRNA in J774A.1 cells. Description: IFNβ mRNA Q-PCR, J774A.1 cells. The settings on record: STING ligands 10 μg/ml, inhibitor 10 μM, 16 hours. The data set is classed as cell-based, mouse. The protocol:
Total RNA was extracted using QIAGEN RNeasy Plus Kit according to the manufacturer's instructions. First-strand cDNA was synthesized from 1 μg of RNA using the iScript cDNA Synthesis kit (#1708890, Bio-Rad). Briefly, 20 μl reactions were prepared by combining 4 μl iScript Select reaction mix, 2 μl gene-specific enhancer solution, 1 μl reverse transcriptase, 1 μl gene-specific assay pool (20×, 2 μM), and 12 μl RNA diluted in RNase-free water. Quantitative real-time PCR was carried out using synthesized cDNA, primers, and SsoFast EvaGreen Supermix (#172-5204, Bio-Rad). The expression of target genes was calculated using the ddCt method relative to the expression of a house-keeping gene, β-actin. Data shown are the relative quantity (RQ), with RQ of the control cells set to one.

Data set [3] has as its system receptor tyrosine kinase phosphorylation in iBMDMs. In words: Proteome Profiler phospho-RTK array, iBMDMs. It counts as cell-based, mouse. The settings on record: 3′3′-cGAMP or c-di-AMP 10 μg/ml, 16 hours, LDK378 10 μM. From the text: The Proteome Profiler Mouse XL Cytokine Array Kit (#ARY028) and the Proteome Profiler Mouse Phospho-RTK Array Kit (#ARY014) are membrane-based sandwich immunoassays. Captured antibodies spotted in duplicate on nitrocellulose membranes bind to specific target proteins present in the sample (Step 1). Captured proteins are detected with biotinylated detection antibodies (Step 2) and then visualized using chemiluminescent detection reagents (Step 3). The signal produced is proportional to the amount of analyte bound. The intensities of bands were analyzed with Quick Spots Image Analysis Software (Western Vision Software, http://www.wvision.com/QuickSpots.html).

The next data set deals with THP1 cells. In words: Cell viability assay (CCK-8), THP1. It counts as cell-based, human. The settings on record: 3′3′-cGAMP 10 μg/ml, ALK inhibitor 10 μM, 16 hours. As for the experimental part:
Cells were seeded into 96-well plates and incubated with the indicated treatments. Subsequently, 100 μl fresh medium was added to cells containing 10 μl Cell Counting Kit-8 (CCK-8) solutions (Dojindo Laboratories) and incubated for 1 h (37° C., 5% CO2). Absorbance at 450 nm was measured using a microplate reader (Tecan).

The subject of data set [4] is LPS-induced endotoxemia in C57BL/6J mice. Description: Endotoxemia model (LPS). The data set is classed as in vivo, mouse. As for the experimental part:
LPS (Escherichia coli […], 10 mg/kg, #L4391, Sigma) was dissolved in PBS. Male or female C57BL/6J mice (eight- to 10-weeks old, 22 to 26 g weight) received a single oral dose of LDK378 (20 mg/kg) or vehicle, then an infusion of LPS (10 mg/kg, intraperitoneally) 60 minutes later. Mice were re-treated with LDK378 or vehicle six, 12, and 24 hours after LPS infusion.
Biochemical measurements of tissue enzymes (CK, AMYL, BUN, and ALT) in serum were performed using the IDEXX Catalyst Dx Chemistry Analyzer according to the manufacturer's protocol.
Tissues were embedded in optimum cutting temperature cryomedium (Sakura Finetek, Zoeterwoude, the Netherlands) and cut into 4 μm sections. The deparaffinized sections were then stained using the standard H&E method. The stained slides were observed using an EVOS FL Auto Cell Imaging System (Invitrogen), five fields per section and three sections per sample.

In data set [5] the target is T2, interaction between ALK and EGFR (Mus musculus, UniProt P97793+Q01279).
T2 construct: endogenous in cells; host or cells: iBMDMs
In words: IP analysis of the interaction between ALK and EGFR, iBMDMs. It counts as cell-based. Particulars: 3′3′-cGAMP or c-di-AMP 10 μg/ml, 16 hours, 10 μM. As for the experimental part:
Concentrations of proteins in the supernatant were determined by bicinchoninic acid assay. […] Following incubation, agarose/sepharose beads were washed extensively with PBS and proteins were eluted by boiling in 2× sodium dodecyl sulfate (SDS) sample buffer before SDS-PAGE electrophoresis.

Data set [6] relates to STING signaling (TBK1, IRF3, p65, ALK, EGFR, AKT phosphorylation) in iBMDMs. In words: Western blot of STING pathway protein phosphorylation, iBMDMs. It counts as cell-based, mouse. The protocol: For immunoblotting, cells were lysed in Cell Lysis Buffer (#9803, Cell Signaling Technology) with protease inhibitor cocktail (Promega), phosphatase inhibitor cocktail (Sigma), and 1 mM Na3VO4 (70). Cleared lysates were resolved by SDS-PAGE (#3450124, Bio-Rad) and then transferred onto PVDF membranes (#1704273, Bio-Rad). The membranes were blocked with Tris-buffered saline Tween 20 (TBST) containing 5% skim milk for 1 h at room temperature and then incubated with the indicated primary antibodies (1:1000-1:5000) overnight at 4° C. After being washed with TBST, the membranes were incubated with an HRP-linked anti-mouse IgG secondary antibody (#7076, Cell Signaling Technology) or HRP-linked anti-rabbit IgG secondary antibody (#7074, Cell Signaling Technology) for 1 h at room temperature. The membranes were washed three times in TBST and then visualized and analyzed with a ChemiDoc Touch Imaging System (#1708370, Bio-Rad). The intensities of bands were analyzed with Image Lab software.
(Immunoblotting shows a protein as a band on a membrane.)

Setting [7] is: LPS 10 mg/kg, LDK378 20 mg/kg, 24 hours.

Entries after “also recorded” stand apart in the source; their conditions may differ.

T1 sequence (Q9UM73 19-1620): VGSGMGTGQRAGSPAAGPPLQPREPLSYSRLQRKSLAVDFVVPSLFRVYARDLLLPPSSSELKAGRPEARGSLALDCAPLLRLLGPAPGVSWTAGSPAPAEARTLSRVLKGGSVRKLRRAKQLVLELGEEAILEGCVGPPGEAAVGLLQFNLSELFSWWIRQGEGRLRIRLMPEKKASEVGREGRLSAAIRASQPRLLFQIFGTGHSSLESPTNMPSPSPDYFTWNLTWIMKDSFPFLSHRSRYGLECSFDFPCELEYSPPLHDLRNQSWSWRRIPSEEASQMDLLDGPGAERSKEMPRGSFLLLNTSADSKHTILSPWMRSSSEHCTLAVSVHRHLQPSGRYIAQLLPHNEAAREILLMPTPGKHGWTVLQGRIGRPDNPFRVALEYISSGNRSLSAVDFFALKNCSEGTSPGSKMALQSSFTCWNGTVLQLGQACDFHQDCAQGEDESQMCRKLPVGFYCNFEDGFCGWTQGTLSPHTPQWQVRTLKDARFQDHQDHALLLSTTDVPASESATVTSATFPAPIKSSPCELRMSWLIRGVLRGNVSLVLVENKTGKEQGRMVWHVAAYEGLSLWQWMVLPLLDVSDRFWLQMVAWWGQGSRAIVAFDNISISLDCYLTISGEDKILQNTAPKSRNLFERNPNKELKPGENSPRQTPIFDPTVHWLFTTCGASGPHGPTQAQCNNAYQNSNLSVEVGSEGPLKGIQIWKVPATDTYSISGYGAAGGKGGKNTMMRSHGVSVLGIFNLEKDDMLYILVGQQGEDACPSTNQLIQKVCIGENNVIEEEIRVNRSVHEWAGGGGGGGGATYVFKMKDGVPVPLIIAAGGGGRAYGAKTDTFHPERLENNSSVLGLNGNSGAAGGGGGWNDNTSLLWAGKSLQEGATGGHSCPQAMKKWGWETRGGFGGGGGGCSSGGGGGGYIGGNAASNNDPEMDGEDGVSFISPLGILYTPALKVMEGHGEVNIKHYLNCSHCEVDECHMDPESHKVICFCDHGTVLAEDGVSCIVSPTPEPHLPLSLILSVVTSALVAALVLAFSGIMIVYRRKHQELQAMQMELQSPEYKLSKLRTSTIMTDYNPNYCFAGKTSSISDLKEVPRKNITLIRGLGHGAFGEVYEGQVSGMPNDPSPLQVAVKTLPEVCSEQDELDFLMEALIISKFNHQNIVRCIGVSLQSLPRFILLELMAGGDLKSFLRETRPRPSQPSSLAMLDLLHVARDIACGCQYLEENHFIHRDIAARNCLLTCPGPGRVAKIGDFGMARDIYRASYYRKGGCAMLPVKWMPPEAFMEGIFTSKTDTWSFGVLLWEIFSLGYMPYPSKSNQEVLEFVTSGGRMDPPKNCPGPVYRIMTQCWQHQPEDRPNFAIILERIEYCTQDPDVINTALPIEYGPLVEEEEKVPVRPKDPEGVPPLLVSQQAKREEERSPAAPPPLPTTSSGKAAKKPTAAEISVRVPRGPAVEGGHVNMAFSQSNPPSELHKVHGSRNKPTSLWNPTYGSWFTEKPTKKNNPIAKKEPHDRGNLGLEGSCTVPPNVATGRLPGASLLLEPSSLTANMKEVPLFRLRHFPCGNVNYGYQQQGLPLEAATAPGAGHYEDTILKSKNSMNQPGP
T1 sequence (P00533 25-1210): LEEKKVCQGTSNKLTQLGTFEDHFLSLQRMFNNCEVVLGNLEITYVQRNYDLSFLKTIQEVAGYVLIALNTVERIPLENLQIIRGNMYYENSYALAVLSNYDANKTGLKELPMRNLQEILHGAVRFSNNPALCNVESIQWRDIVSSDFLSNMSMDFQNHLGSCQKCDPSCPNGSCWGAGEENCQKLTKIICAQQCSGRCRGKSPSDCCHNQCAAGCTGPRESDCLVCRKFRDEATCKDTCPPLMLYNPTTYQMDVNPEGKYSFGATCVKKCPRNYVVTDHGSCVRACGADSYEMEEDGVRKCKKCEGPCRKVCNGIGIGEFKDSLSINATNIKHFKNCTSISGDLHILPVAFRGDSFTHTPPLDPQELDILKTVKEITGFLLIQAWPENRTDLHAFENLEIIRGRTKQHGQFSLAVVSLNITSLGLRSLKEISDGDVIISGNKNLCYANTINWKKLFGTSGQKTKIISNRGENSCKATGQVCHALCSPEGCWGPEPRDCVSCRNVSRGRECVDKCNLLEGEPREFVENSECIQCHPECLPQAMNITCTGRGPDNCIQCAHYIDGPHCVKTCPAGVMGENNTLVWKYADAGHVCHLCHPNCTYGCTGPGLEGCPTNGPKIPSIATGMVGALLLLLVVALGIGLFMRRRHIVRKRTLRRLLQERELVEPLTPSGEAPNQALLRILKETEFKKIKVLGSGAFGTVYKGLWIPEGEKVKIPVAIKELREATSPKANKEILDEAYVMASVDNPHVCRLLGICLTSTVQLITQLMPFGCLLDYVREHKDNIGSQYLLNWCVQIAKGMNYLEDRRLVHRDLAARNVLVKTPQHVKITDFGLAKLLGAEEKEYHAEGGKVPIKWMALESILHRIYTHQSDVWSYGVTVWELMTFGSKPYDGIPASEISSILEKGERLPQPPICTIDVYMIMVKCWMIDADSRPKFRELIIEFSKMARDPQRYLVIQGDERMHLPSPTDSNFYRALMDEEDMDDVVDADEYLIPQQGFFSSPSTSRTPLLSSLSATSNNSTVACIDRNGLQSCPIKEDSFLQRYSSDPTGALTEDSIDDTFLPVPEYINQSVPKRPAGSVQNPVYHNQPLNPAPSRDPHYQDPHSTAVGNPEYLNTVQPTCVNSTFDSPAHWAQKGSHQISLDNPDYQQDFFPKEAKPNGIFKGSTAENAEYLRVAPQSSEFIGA

As to `Cc1cc(Nc2ncc(Cl)c(Nc3ccccc3S(=O)(=O)C(C)C)n2)c(OC(C)C)cc1C1CCNCC1` [LDK378, 5-chloro-N^2-(2-isopropoxy-5-methyl-4-(piperidin-4-yl)phenyl)-N^4-[2-(propane-2-sulfonyl)-phenyl]-pyrimidine-2,4-diamine], the “interaction between ALK and EGFR” value in data set [1] is “reduced”. Further, the “STING ligand-induced IFNβ mRNA expression” value in data set [2] was “attenuation”. Moreover, in data set [3], the “STING ligand-induced upregulated phosphorylation of various RTKs, including EGFR” value is given as “impaired”. Besides, the cell viability entry with THP1 cells was “did not affect cell viability”. In data set [4] (LPS 10 mg/kg i.p., LDK378 20 mg/kg), the “endotoxemic lethality (LPS-induced animal death)” value is “promoted similar protection; also recorded: conferred significant protection; also recorded: prevented”. Moreover, the “organ dysfunction (serum enzyme activity)” value in data set [4] (LPS 10 mg/kg, LDK378 20 mg/kg, 12-48 hours) is reported as “promoted similar protection”. Further, in data set [4] (setting [7]), the “endotoxemia-induced tissue injury (H&E)” value is “promoted similar protection; also recorded: prevented”, the “proinflammatory cytokine expression (mRNA)” value is “promoted similar protection” and the “proinflammatory cytokine release (serum antibody array)” value was “promoted similar protection”. The “top five downregulated circulating immune chemical mediators compared with control group” value in data set [4] (LPS 10 mg/kg, serum, 24 hours) was “EGF, CD14, CXCL1, endoglin, and CCL22”. The “interaction between ALK and EGFR” value in data set [5] is reported as “reduced”. The “3′3′-cGAMP-induced p-TBK1” value in data set [6] (3′3′-cGAMP 10 μg/ml, 10 μM, three to 16 hours) is on record as “time-dependently reduced”. In data set [6] (3′3′-cGAMP or c-di-AMP 10 μg/ml, 16 hours, 10 μM), the “STING ligand-induced phosphorylation of TBK1, IRF3, and p65” value is recorded as “diminished”. Further, the “LPS-induced phosphorylation of TBK1, IRF3, and p65” value in data set [6] (LPS 1 μg/ml, LDK378 10 μM, three hours) was “inhibited”. The “3′3′-cGAMP-, c-di-AMP-, and DMXAA-induced p-IRF3 and p-p65” value in data set [6] (ligand 10 μg/ml, 10 μM) is “inhibited”. Moreover, the “c-di-AMP- or DMXAA-induced p-TBK1” value in data set [6] (ligand 10 μg/ml, 10 μM, 16 hours) was “inhibited”. In addition, in data set [6] (ligand 10 μg/ml, 16 hours, 10 μM), the “3′3′-cGAMP- or c-di-AMP-induced phosphorylation of ALK, EGFR, and AKT” value is given as “attenuated”.

Source of the values: US11179412B2, “Methods of treating conditions involving elevated inflammatory response” (University of Pittsburgh—Of the Commonwealth System of …, priority 2017, dated 2021).
